Reference: patent US11197908B2, “Peptoids and methods for attenuating inflammatory response” (THE BOARD OF TRUSTEES OF THE UNIVERSITY OF ARKANSAS, priority 2018, dated 2021)
pKd: −log10 of the molar value. Where a SMILES comes first, the peptide text is derived from it. [ ]: non-standard residue; d: D form. Nphe = O=C(O)CNCc1ccccc1; NPrGly = CCCNCC(=O)O; Nlys = NCCCCNCC(=O)O

How the values were obtained:
RAGE [1] = test: RAGE upregulation in THP-1 macrophages co-incubated with peptoid and low-dose LPS (confocal imaging); format: cell-based, human; conditions: 3 days
Description: (§1) THP-1 monocytes were differentiated into macrophages through exposure to phorbol 12-myristate 13-acetate (PMA) for three days prior to experimentation 10. […] Upon differentiation, these cells were then incubated (3 days) with media containing JPT1a (50, 10, or 2 μM) alone or JPT1a (50, 10, or 2 μM) in the presence of low-dose (2 ng/mL) lipopolysaccharide (LPS) as a chronic pro-inflammatory stimulus 11. Treatment with 2 ng/mL LPS alone served as a positive control, while treatment with an equivalent volume of buffer diluted into media served as the vehicle. Cellular supernatant was harvested on day 3 12; these samples were immediately centrifuged at 1200 rpm for 10 min at 25° C. to remove any cells or debris. The top 80% of this volume was subsequently removed and stored at −80° C. for later assessment of cytokines via ELISA. Cells were fixed and stained for RAGE, phalloidin (cytoplasmic marker), and DAPI (nuclear marker) 13. Each channel was imaged with a Zeiss LSM 510 META Confocal Scanning Laser Microscope using a plan-neofluar 40×/1.3 oil DIC immersion objective; three of these multi-channel images were obtained from each slide in each experiment 14. All multi-channel images were converted to TIFF file format via ImageJ64 software for quantitative image analysis using a custom subroutine written in Matlab™ software to obtain the average RAGE expression per volume of cells, and the data generated was assessed for statistical significance using GraphPad Prism 7.0 software 15.
(§2) Images acquired via confocal microscopy were analyzed via custom MATLAB™ subroutine to determine the average quantity of RAGE present within a given volume of cells. Results within each experiment are normalized to the positive control (2 ng/mL LPS alone), indicated by the dashed line at 1. Significance relative to positive control is indicated as ** p<0.01. Error bars indicate SEM, n=4.
as §2, with “1.0.” for “1. Significance relative to positive control is indicated as ** p<0.01.”, “n=2.” for “n=4.”

IL-1β = IL-1β in supernatant of THP-1 macrophages co-incubated with peptoid and LPS (ELISA); format: cell-based, human; conditions: peptoid 50 μM with 2 ng/mL LPS, 3 days; vs LPS alone
Description: as §1, with “The top 80% of this volume was subsequently removed and stored at −80° C. for later assessment of cytokines via ELISA. Cells were fixed and stained for RAGE, phalloidin (cytoplasmic marker), and DAPI (nuclear marker) 13. Each channel was imaged with a Zeiss LSM 510 META Confocal Scanning Laser Microscope using a plan-neofluar 40×/1.3 oil DIC immersion objective; three of these multi-channel images were obtained from each slide in each experiment 14.” left out
(§3) As shown in FIGS. 2B-2D, THP-1 macrophages were treated with JPT1a alone (white) or in the presence of a chronic low-dose (2 ng/mL) of LPS (grey), for 3 days prior to supernatant harvest and storage. Examination of the supernatant via ELISA determined the concentrations of (FIG. 2B) IL-1β, (FIG. 2C) IL-6, and (FIG. 2D) IL-8. […]

IL-6 = IL-6 in supernatant of THP-1 macrophages co-incubated with peptoid and LPS (ELISA); format: cell-based, human; conditions: peptoid 50 μM with 2 ng/mL LPS, 3 days; vs LPS alone
Description: as §1, with “Each channel was imaged with a Zeiss LSM 510 META Confocal Scanning Laser Microscope using a plan-neofluar 40×/1.3 oil DIC immersion objective; three of these multi-channel images were obtained from each slide in each experiment 14.” left out
as §3
as §3, with “5B-5D,” for “2B-2D,”, “JPT1” for “JPT1a”, “5B)” for “2B)”, “5C)” for “2C)”, “5D)” for “2D)”

RAGE [2] = molecular target: RAGE (Homo sapiens, UniProt Q15109); test: RAGE binding to peptoid-coated 96-well plates, Scatchard plot; conditions: plates coated with 500 nM peptoid; JPT1a n=3 average, JPT1 n=1
RAGE (Homo sapiens, UniProt Q15109), sequence (Q15109 23-404): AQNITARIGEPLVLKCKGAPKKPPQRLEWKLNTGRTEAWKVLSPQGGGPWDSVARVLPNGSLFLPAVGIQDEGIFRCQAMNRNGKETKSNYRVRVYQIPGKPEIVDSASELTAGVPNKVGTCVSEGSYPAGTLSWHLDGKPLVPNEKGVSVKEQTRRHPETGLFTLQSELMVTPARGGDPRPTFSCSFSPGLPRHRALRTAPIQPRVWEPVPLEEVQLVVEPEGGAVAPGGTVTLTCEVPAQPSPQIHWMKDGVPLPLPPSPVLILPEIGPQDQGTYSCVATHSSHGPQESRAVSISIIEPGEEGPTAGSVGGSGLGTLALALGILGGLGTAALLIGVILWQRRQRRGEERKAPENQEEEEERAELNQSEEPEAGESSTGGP
Description: As shown in FIGS. 7A-7D, 96-well plates coated with 500 nM JPT1a were treated with concentrations of RAGE (FIG. 7A) or E-cadherin (FIG. 7B) ranging from 1 to 500 nM. Values are reported as the average concentration of bound protein determined from all experiments. Error bars indicate SEM, n=2-5. […] In FIG. 7D, 96-well plates coated with 500 nM JPT1 were treated with concentrations of RAGE ranging from 1 to 350 nM.

pKd (RAGE [2]): 7.10
SMILES: CCCN(CC(=O)N(CCC)CC(=O)N(CC(=O)N(CC(=O)N(CCC)CC(=O)N(CC(=O)N(CC(N)=O)Cc1ccccc1)Cc1ccccc1)Cc1ccccc1)Cc1ccccc1)C(=O)CNCCCCN [JPT1] (H-[Nlys][NPrGly][NPrGly][Nphe][Nphe][NPrGly][Nphe][Nphe]-NH2)
upregulation in RAGE expression in the presence of LPS (RAGE [1]; peptoid 50, 10 or 2 μM with 2 ng/mL LPS, normalized to LPS alone): reduced in a dose-dependent manner | expression of RAGE, peptoid alone (RAGE [1]; peptoid alone (no LPS), relative to the control): does not provoke response or upregulation | LPS-induced production of IL-1β (IL-1β): significantly attenuates | LPS-induced production of IL-6 (IL-6): significantly attenuates
